Measured values: publication PMC7366380, “Discovery of a Potent and Selective Covalent Inhibitor and Activity-Based Probe for the Deubiquitylating Enzyme UCHL1, with Antifibrotic Activity” (Journal of the American Chemical Society, 2020)
Several values for one entry are separate records, joined by “and”; a condition that tells them apart may be missing. Equal values may be shown once.

Key:
[1] = target: T1, DUBs and other proteins in HEK293 cells (Homo sapiens, UniProt P45974); assay: In-cell proteome-wide competitive ABPP, HEK293: other DUBs and proteins; details: replicates A-C; for Log2 reporter intensity values: USP5: competition with ABP 2, DMSO substract (FC); for Log2 reporter intensity values: USP5, DMSO subtracted
T1 sequence (P45974 1-858): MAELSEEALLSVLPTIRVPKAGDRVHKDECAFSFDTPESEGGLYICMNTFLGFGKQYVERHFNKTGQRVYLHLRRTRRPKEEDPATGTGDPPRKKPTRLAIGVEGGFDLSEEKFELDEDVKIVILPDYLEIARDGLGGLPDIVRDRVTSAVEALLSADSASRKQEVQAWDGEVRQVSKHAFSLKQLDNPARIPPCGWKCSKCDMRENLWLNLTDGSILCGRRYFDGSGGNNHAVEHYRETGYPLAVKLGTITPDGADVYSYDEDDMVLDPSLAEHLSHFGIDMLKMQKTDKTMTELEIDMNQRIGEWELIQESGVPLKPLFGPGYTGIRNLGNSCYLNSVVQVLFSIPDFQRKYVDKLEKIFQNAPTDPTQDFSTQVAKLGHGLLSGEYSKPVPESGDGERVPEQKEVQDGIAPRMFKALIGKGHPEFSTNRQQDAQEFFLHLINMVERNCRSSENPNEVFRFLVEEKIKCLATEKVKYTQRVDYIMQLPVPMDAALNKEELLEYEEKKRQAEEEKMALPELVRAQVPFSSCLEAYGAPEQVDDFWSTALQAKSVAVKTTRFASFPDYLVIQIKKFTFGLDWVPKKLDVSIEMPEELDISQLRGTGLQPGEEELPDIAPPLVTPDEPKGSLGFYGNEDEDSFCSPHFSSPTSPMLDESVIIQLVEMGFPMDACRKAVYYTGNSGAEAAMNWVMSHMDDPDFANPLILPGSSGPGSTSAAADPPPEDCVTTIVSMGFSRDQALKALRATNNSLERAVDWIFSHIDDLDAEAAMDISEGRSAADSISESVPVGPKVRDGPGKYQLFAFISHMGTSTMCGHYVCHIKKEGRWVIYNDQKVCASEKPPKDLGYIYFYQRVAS

[2] = target: DUBs and other proteins in HEK293 cells (Homo sapiens, UniProt Q93008); assay: as above; details: replicates A-C; for Log2 reporter intensity values: USP9X;USP9Y: competition with ABP 2, DMSO substract (FC); for Log2 reporter intensity values: USP9X;USP9Y, DMSO subtracted
[3] = target: DUBs and other proteins in HEK293 cells (Homo sapiens, UniProt P51784); assay: as above; details: replicates A-C; for Log2 reporter intensity values: USP11: competition with ABP 2, DMSO substract (FC); for Log2 reporter intensity values: USP11, DMSO subtracted
DUBs and other proteins in HEK293 cells (Homo sapiens, UniProt P51784), sequence (P51784 whole entry): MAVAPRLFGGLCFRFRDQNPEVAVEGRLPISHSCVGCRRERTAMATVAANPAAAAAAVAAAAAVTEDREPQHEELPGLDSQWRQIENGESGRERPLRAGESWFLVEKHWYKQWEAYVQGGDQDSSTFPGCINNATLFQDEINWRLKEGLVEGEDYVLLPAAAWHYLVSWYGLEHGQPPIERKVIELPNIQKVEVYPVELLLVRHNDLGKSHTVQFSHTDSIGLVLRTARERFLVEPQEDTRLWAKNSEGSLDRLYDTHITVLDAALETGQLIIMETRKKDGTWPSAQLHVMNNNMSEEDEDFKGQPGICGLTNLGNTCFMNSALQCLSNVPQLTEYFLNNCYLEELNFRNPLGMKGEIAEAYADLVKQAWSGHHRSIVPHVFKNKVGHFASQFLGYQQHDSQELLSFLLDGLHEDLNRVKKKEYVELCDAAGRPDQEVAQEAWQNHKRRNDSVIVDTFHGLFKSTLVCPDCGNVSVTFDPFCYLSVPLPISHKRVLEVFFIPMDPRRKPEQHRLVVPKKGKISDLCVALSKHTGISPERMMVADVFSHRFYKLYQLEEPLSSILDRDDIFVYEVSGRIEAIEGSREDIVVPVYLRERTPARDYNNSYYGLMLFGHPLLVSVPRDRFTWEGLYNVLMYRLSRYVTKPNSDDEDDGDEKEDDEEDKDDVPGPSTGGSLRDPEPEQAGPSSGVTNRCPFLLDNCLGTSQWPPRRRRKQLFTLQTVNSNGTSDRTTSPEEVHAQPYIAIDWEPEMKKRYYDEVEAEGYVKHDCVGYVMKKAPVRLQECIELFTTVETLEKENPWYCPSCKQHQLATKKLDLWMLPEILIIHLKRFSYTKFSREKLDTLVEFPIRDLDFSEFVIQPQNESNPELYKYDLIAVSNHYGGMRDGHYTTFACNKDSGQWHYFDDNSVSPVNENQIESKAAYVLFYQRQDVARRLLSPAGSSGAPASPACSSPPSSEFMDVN

[4] = target: T2, DUBs and other proteins in HEK293 cells (Homo sapiens, UniProt P51665); assay: as above; details: replicates A-C; for Log2 reporter intensity values: PSMD7: competition with ABP 2, DMSO substract (FC); for Log2 reporter intensity values: PSMD7, DMSO subtracted
T2 sequence (P51665 1-324): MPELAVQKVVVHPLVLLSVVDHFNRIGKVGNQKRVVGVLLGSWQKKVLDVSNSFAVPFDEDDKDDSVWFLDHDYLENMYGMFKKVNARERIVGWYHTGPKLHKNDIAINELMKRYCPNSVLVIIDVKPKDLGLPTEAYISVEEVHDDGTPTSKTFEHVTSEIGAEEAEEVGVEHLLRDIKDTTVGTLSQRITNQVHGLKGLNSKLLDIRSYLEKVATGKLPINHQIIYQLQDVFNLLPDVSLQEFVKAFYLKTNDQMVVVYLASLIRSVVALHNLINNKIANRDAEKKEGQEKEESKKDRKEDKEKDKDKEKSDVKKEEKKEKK

[5] = target: DUBs and other proteins in HEK293 cells (Homo sapiens, UniProt O15372); assay: as above; details: for Log2 reporter intensity values, EIF3H: TMT replicates; for Log2 reporter intensity values: EIF3H: competition with ABP 2, DMSO substract (FC); for Log2 reporter intensity values: EIF3H / Log2 reporter intensity values: replicates A-C; for Log2 t-test Difference / Log2 reporter intensity values: EIF3H
DUBs and other proteins in HEK293 cells (Homo sapiens, UniProt O15372), sequence (O15372 whole entry): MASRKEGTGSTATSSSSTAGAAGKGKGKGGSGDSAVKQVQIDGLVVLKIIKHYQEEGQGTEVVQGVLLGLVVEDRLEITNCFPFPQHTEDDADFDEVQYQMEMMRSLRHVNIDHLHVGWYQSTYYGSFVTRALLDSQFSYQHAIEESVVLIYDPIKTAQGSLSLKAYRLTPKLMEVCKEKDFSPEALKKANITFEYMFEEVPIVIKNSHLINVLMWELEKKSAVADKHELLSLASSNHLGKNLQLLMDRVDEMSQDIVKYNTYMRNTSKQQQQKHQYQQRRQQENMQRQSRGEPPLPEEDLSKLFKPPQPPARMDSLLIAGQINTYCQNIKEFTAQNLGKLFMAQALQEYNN

[6] = target: DUBs and other proteins in HEK293 cells (Homo sapiens, UniProt Q9UPU5); assay: as above; details: replicates A-C; for Log2 reporter intensity values: USP24: competition with ABP 2, DMSO substract (FC); for Log2 reporter intensity values: USP24, DMSO subtracted
DUBs and other proteins in HEK293 cells (Homo sapiens, UniProt Q9UPU5), sequence (Q9UPU5 whole entry): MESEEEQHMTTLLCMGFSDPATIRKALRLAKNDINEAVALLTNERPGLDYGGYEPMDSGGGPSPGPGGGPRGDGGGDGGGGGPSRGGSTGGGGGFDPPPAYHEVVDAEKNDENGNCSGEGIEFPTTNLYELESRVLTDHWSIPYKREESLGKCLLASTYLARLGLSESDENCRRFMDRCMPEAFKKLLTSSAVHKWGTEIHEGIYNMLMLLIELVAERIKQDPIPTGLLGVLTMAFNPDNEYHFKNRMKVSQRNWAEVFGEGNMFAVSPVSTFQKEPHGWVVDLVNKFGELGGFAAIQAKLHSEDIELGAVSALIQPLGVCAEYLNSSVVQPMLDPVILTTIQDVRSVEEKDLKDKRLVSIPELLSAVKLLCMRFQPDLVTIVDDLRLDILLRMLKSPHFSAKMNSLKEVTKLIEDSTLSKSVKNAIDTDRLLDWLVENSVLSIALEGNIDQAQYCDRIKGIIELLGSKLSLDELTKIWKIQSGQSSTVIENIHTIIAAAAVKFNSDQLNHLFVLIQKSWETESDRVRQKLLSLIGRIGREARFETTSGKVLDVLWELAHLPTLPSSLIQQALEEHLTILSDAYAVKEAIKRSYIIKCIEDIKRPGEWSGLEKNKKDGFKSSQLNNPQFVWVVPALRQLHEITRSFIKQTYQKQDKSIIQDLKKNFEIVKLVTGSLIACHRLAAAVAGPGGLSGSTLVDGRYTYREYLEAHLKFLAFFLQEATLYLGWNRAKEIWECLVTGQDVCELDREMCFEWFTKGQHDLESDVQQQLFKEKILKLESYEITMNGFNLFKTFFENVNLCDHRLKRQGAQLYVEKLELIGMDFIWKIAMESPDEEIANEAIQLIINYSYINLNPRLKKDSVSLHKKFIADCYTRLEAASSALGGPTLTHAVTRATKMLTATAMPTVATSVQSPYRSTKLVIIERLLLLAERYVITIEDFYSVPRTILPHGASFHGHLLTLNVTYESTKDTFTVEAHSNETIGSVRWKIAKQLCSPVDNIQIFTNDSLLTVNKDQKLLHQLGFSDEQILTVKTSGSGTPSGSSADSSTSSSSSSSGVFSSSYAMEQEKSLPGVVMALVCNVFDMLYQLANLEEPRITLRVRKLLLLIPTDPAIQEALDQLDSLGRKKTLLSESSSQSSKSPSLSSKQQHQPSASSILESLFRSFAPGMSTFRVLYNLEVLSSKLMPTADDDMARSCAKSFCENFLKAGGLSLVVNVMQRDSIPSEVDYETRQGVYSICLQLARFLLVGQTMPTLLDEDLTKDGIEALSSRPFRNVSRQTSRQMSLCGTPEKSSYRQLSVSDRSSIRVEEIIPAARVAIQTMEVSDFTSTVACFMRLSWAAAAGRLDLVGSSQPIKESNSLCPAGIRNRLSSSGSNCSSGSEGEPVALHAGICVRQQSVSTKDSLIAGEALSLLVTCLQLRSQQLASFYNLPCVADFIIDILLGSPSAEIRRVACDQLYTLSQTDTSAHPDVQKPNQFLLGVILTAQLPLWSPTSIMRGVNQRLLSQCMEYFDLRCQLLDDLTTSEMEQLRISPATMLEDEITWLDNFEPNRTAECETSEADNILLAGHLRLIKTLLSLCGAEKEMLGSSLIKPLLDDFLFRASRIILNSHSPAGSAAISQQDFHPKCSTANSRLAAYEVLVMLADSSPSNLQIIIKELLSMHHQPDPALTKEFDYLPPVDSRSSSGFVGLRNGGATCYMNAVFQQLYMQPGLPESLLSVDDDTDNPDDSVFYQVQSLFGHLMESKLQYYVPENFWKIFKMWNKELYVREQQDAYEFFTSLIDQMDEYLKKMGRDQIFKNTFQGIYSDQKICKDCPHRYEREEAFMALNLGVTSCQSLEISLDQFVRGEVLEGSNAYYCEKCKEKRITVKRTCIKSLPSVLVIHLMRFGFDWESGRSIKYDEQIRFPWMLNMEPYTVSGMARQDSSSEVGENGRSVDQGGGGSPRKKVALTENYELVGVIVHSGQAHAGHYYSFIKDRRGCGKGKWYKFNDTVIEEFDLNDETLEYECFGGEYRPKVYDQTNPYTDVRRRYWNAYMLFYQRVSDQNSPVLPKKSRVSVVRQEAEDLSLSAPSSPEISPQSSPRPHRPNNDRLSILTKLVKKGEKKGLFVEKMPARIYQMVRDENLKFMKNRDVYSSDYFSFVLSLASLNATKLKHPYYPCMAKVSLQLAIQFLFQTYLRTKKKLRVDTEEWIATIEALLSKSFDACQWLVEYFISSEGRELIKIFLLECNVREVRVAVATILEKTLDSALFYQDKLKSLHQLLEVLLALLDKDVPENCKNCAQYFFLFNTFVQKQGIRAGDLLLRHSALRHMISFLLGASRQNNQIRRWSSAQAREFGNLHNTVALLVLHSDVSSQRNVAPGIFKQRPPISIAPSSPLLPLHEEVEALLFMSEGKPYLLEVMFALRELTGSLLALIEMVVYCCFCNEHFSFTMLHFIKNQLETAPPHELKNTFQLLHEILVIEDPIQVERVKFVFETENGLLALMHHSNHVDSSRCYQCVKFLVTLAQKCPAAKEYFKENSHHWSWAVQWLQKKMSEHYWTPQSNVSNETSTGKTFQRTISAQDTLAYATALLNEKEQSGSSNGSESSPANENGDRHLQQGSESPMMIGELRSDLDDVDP

USP21 = target: T3, USP21 (Homo sapiens, UniProt Q9UK80); assay: biochemical
T3 sequence (Q9UK80 1-565): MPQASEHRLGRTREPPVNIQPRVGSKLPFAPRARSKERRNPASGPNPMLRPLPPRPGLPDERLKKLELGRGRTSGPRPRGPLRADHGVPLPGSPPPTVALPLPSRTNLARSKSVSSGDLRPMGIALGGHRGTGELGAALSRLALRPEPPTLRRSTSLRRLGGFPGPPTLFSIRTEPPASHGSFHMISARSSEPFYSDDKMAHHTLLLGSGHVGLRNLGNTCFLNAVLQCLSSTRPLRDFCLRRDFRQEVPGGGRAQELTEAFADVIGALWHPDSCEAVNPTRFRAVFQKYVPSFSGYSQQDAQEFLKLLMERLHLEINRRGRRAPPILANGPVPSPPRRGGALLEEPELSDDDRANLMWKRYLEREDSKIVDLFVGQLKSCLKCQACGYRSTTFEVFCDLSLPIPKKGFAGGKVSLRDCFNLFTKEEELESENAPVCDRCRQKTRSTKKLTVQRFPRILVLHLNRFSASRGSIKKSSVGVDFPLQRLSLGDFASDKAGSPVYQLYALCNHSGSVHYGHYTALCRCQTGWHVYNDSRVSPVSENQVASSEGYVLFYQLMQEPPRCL

With N#CN1CCC[C@@H]1C(=O)N1CCc2c(-c3c[nH]c4ncccc34)cccc21 [Compound 3] the “Log2 reporter intensity values: USP5” value ([1]; 3 at 1 μM) was 0.9394 and 0.9901 and 0.9848, the “Log2 reporter intensity values: USP5” value ([1]; 3 at 4 μM) was 1.005 and 1.031 and 1.063 and the “Log2 reporter intensity values” ([1]; 3_1 μM) was -0.06093 and -0.01022 and -0.01553. The “Log2 reporter intensity values” ([1]; 3_4 μM) was 0.004396 and 0.03114 and 0.06231, the “Log2 reporter intensity values” ([1]; 3 at 1 μM) was -0.0902 and -0.01435 and -0.02211 and the “Log2 reporter intensity values” ([1]; 3 at 4 μM) was 0.006795 and 0.04469 and 0.08765. The “Log2 reporter intensity values: USP9X;USP9Y” value ([2]; 3 at 1 μM) was 1.02 and 0.9178 and 0.9768, the “Log2 reporter intensity values: USP9X;USP9Y” value ([2]; 3 at 4 μM) was 0.9914 and 0.9828 and 0.9945 and the “Log2 reporter intensity values” ([2]; 3_1 μM) was 0.02022 and -0.08228 and -0.02322. For the same compound, the “Log2 reporter intensity values” ([2]; 3_4 μM) was -0.008621 and -0.01719 and -0.00552, the “Log2 reporter intensity values” ([2]; 3 at 1 μM) was 0.02892 and -0.1238 and -0.03385 and the “Log2 reporter intensity values” ([2]; 3 at 4 μM) was -0.01245 and -0.02497 and -0.007941. For the same compound, the “Log2 reporter intensity values: USP11” value ([3]; 3 at 1 μM) was 1.117 and 1.058 and 1.05, the “Log2 reporter intensity values: USP11” value ([3]; 3 at 4 μM) was 0.8158 and 0.9889 and 0.9502 and the “Log2 reporter intensity values” ([3]; 3_1 μM) was 0.1164 and 0.05763 and 0.04999. For the same compound, the “Log2 reporter intensity values” ([3]; 3_4 μM) was -0.1845 and -0.01139 and -0.05014, the “Log2 reporter intensity values” ([3]; 3 at 1 μM) was 0.1593 and 0.08129 and 0.07083 and the “Log2 reporter intensity values” ([3]; 3 at 4 μM) was -0.2937 and -0.01604 and -0.0737. For the same compound, the “Log2 reporter intensity values: PSMD7” value ([4]; 3 at 1 μM) was 1.2 and 1.081 and 1.198, the “Log2 reporter intensity values: PSMD7” value ([4]; 3 at 4 μM) was 1.083 and 1.233 and 0.9957 and the “Log2 reporter intensity values” ([4]; 3_1 μM) was 0.1973 and 0.07834 and 0.1956. For the same compound, the “Log2 reporter intensity values” ([4]; 3_4 μM) was 0.08024 and 0.2301 and -0.006858, the “Log2 reporter intensity values” ([4]; 3 at 1 μM) was 0.2629 and 0.1122 and 0.2608 and the “Log2 reporter intensity values” ([4]; 3 at 4 μM) was 0.1148 and 0.3017 and -0.006207. For the same compound, the “Log2 reporter intensity values, EIF3H” value ([5]; 1 μM 3 (60 min) + 20 nM ABP 2 (10 min), All values) was -0.08032 and 0.01397 and -0.006379, the “Log2 reporter intensity values, EIF3H” value ([5]; 1 μM 3 (60 min) + 20 nM ABP 2 (10 min), DMSO subtracted) was -0.1099 and -0.01562 and -0.03597 and the “Log2 reporter intensity values, EIF3H” value ([5]; 4 μM 3 (60 min) + 20 nM ABP 2 (10 min), All values) was 0.0444 and 0.04115 and 0.06318. For the same compound, the “Log2 reporter intensity values, EIF3H” value ([5]; 4 μM 3 (60 min) + 20 nM ABP 2 (10 min), DMSO subtracted) was 0.01481 and 0.01156 and 0.03359, the “Log2 reporter intensity values: EIF3H” value ([5]; 3 at 1 μM) was 0.9266 and 0.9892 and 0.9754 and the “Log2 reporter intensity values: EIF3H” value ([5]; 3 at 4 μM) was 1.01 and 1.008 and 1.024. For the same compound, the “Log2 t-test Difference” value ([5]; 3 - 1 μM) was -0.05018, the “Log2 t-test Difference” value ([5]; 3 - 4 μM) was 0.02364 and the “Log2 reporter intensity values” ([5]; 3_1 μM, DMSO subtracted) was -0.0735 and -0.01091 and -0.02477. For the same compound, the “Log2 reporter intensity values” ([5]; 3_4 μM, DMSO subtracted) was 0.01017 and 0.007903 and 0.02341, the “Log2 reporter intensity values” ([5]; 3 at 1 μM, DMSO subtracted) was -0.1099 and -0.01562 and -0.03597 and the “Log2 reporter intensity values” ([5]; 3 at 4 μM, DMSO subtracted) was 0.01481 and 0.01156 and 0.03359. For the same compound, the “Log2 reporter intensity values: USP24” value ([6]; 3 at 1 μM) was 1.062 and 1.01 and 1.397, the “Log2 reporter intensity values: USP24” value ([6]; 3 at 4 μM) was 1.531 and 1.061 and 0.663 and the “Log2 reporter intensity values” ([6]; 3_1 μM) was 0.05897 and 0.007121 and 0.3935. The “Log2 reporter intensity values” ([6]; 3_4 μM) was 0.5273 and 0.05764 and -0.3403, the “Log2 reporter intensity values” ([6]; 3 at 1 μM) was 0.08723 and 0.01505 and 0.4822 and the “Log2 reporter intensity values” ([6]; 3 at 4 μM) was 0.6141 and 0.08543 and -0.5928. The IC50 (USP21) was over 10 µM.
